The values that follow come from patent US20260272936A1, “TREATMENT OF CANCER WITH A PARG INHIBITOR” (858 Therapeutics, Inc., priority 2023, published 2026).

For assay [1], the system named is γH2AX in HCC1428 tumor tissue. Kind of assay: γH2AX immunohistochemistry of HCC1428 xenograft tumor tissue (Study 2). Format: in vivo, BALB/c nude mice. As to conditions: vehicle 2.4%. As to the method:
The mice in the 50 mg/kg BID group were dosed every day whereas the mice in the […] were dosed for the first 5 days of each 7-day cycle, such that the total weekly dose was the same between these two groups. At the end of the study, tumor tissue was collected for the vehicle, 50 mg/kg BID, and 30, 50 and 100 mg/kg QD dose groups and formalin-fixed and paraffin embedded (FFPE) for γH2AX immunohistochemistry. γH2AX expression in FFPE tumor tissue was evaluated by staining and was performed using immunohistochemistry and validated antibody conditions at Histowiz (Long Island City, NY, USA). The γH2AX IHC images were then quantified in-house using QuPath software. The total number of nuclei objects per tumor section based on hematoxylin counter-staining (blue) were segmented using a Stardist algorithm and the number of γH2AX positive DAB (3,3′ Diaminobenzidine) stained cells (brown) quantified using object classification with a pre-trained random forest model based on DAB staining parameters including intensity and standard deviation.
% γH2AX positive=(#γH2AX positive nuclei/#total nuclei)*100
Statistical analysis of the γH2AX staining was conducted using Ordinary one-way ANOVA with Dunnett's multiple comparisons test and differences considered significant at a calculated probability p≤0.05.

The test system of a further assay is HCC1428 cells. Description: 6-day cell proliferation, nuclei count. It counts as cell-based. As to conditions: Homo sapiens. An excerpt: (§1) The FU-97 (Cat #JCRB1074) human gastric cancer cell line and the Kuramochi (Cat #JCRB0098) and RMUG-S(Cat #IFO50320) human ovarian cancer cell lines were obtained from the National Institutes of Biomedical Innovation, Health and Nutrition's Japanese Collection of Research Bioresources (JCRB) (Ibaraki City, Osaka, Japan). The HCC1419 (Cat #CRL-2326) and HCC1428 (Cat #CRL-2327) human breast cancer cell lines and the NCI-H1650 (Cat #CRL-5883) and NCI-H1792 (Cat #CRL-5895) non-small cell lung cancer cell lines were obtained from ATCC (Manassas, Virginia, USA). The human gastric cancer cell lines GCIY (Cat #RCB0555) and SNU601 (Cat #CSC-C9686L) were obtained from the Riken Bioresource Research Center (Tsukuba, Ibaraki, Japan) and Creative Bioarray (Shirley, NY, USA), respectively. The T025OV ovarian cancer organoid model was developed from a patient-derived xenograft (PDX) model, which was developed from primary serous ovarian carcinoma cells obtained from Discovery Life Sciences (Huntsville, AL, USA, SN #350627149). T026OV organoids were developed from PDX cells obtained from The Jackson Laboratory (Bar Harbor, ME, USA, Cat #TM00335).
(§2) All cell lines were grown in an incubator at 37° C. in 5% CO2. The Kuramochi and SNU-601 cells were cultured in RPMI+glutaMAX™ (Thermo Fisher Scientific, Waltham, MA, USA Cat #74200120) containing 1% penicillin/streptomycin (pen/strep) (Thermo Fisher Scientific Cat #15070-063), and 10% fetal bovine serum (FBS) (Thermo Fisher Scientific Cat #A31605-02). The HCC1419, HCC1428, NCI-H1650, and NCI-H1792 cells were cultured in ATCC-modified RPMI+glutaMAX™ (Thermo Fisher Scientific Cat #A10491-01) containing 1% pen/strep and 10% FBS. The FU-97 cells were cultured in DMEM+glutaMAX™ (Thermo Fisher Scientific, Waltham, MA, USA Cat #10566-016) containing 1% pen/strep, 10% FBS and 0.01 mg/mL bovine insulin (MilliporeSigma, Burlington, MA, USA Cat #10516-5ML). The GCIY cells were cultured in MEM (Thermo Fisher Scientific Cat #11095-080) containing 1% pen/strep and 15% FBS. The RMUG-S cells were cultured in Ham's F12 medium+glutaMAX™ (Thermo Fisher Scientific Cat #31765-035) containing 10% FBS and 1% pen/strep.
(§3) Compound 1 IC50 values for inhibition of cell proliferation were determined by imaging and counting the number of nuclei after compound treatment. Cells were harvested with trypsin (Thermo Fisher Scientific, Cat #25200-056) and plated in black-walled, clear bottom 96-well Corning costar 3603 plates (VWR, Radnor, PA, USA Cat #29444-008) at 7500 cells/well (HCC1428 and HCC1419), 5000 cells/well (Kuramochi, FU-97, SNU-601), 2500 cells/well (RMUG-S, GCIY, NCI-H1650) or 1000 cells/well (NCI-H1792) in 100 μL normal growth media and incubated overnight at 37° C., 5% CO2. The following day, a 1000× Compound 1 concentration curve was prepared by serial dilution of Compound 1 in 100% DMSO. The 1000× Compound 1 concentration curve was diluted 1:200 into growth media to generate a 5× concentration curve in 0.5% DMSO/growth medium before addition of 25 μL of the 5× compound to the wells. Control wells received 25 μL of 0.5% DMSO/media alone (negative control wells) or 50 μM Compound 1 (positive controls; 10 μM Compound 1 final). The plate was mixed gently on a plate shaker, covered with Breathe-Easy biofilm (Diversified Biotech, Cat #BEM-1), and incubated at 37° C., 5% CO2 for 6 days. Following the incubation period, a 125 μL fixation/permeabilization solution containing 8% paraformaldehyde (Fisher Scientific, Cat #50-980-495, part of Thermo Fisher Scientific) and 0.2% Triton X-100 (Thermo Fisher Scientific, Cat #327372500) in PBS was added to each well of the plate, and the plates were incubated at room temperature for 20 min. The solution was aspirated and cells washed by the addition of 100 μL PBS. After aspiration of the PBS, nuclei were stained by the addition of 100 μL 1 μg/mL DAPI (Thermo Fisher Cat #62248) in PBS. […]

A further assay deals with HCC1419 cells. Description: 6-day cell proliferation, nuclei count. Format: cell-based. As to conditions: Homo sapiens.
Text: as §1, §2, §3

A further assay deals with NCI-H1792 cells. Description: 6-day cell proliferation, nuclei count. Format: cell-based. As to conditions: Homo sapiens.
Text: as §1, §2, §3

For another assay, the system named is FU-97 cells. Kind of assay: 6-day cell proliferation, nuclei count. It counts as cell-based. As to conditions: Homo sapiens, Fu97, 144 h.
Text: as §1, §2, §3

Take `[2H]C([2H])(c1cnn(C)c1)N1C(=O)c2cc(S(=O)(=O)NC3(C)CC3)ccc2N2C1=NC[C@H]2C` [Compound 1, (R)-1-methyl-4-((1-methyl-1H-pyrazol-4-yl)methyl-d2)-N-(1-methylcyclopropyl)-5-oxo-1,2,4,5-tetrahydroimidazo[1,2-a]quinazoline-7-sulfonamide]: the “% γH2AX positive cells in tumor tissue” value in assay [1] (30 mg/kg QD) turned out to be 3.7% +/− 0.4; in assay [1] (50 mg/kg BID), 6.8% +/− 0.4; in assay [1] (50 mg/kg QD) it was 4.2% +/− 0.3; in assay [1] (100 mg/kg QD), 5.9% +/− 0.5. For the same molecule, the IC90 came out at 0.363 µM in the assay on HCC1428 cells (144 h, HCC1428, 6 days, geometric mean, read-out: IC90 inhibition of proliferation); 0.206 µM in the assay with HCC1419 cells (144 h, HCC1419, 6 days, geometric mean, read-out: IC90 inhibition of proliferation); 4.28 µM with NCI-H1792 cells (144 h, NCI-H1792, 6 days, geometric mean, read-out: IC90 inhibition of proliferation); 0.833 µM in the assay with FU-97 cells (FU-97, 6 days, geometric mean, read-out: IC90 inhibition of proliferation). In addition, the IC50 in the assay with HCC1428 cells (HCC1428, 144 h, read-out: IC50 inhibition of proliferation) was 0.131 µM; in the assay on HCC1419 cells (HCC1419, 144 h, read-out: IC50 inhibition of proliferation), 0.05 µM; with NCI-H1792 cells (NCI-H1792, 144 h, read-out: IC50 inhibition of proliferation), 1.15 µM; with FU-97 cells (read-out: IC50 inhibition of proliferation), 0.178 µM.
